Laboratory results: patent publication US20230146870A1, “METHOD TO QUANTIFY AFFINITY AND SELECTIVITY OF SMALL MOLECULES FOR PROTEINS IN LIVING CELLS” (Ohio State Innovation Foundation, priority 2021, published 2023)

How the values were obtained:
[1] = target: PKCγ (Homo sapiens, UniProt P05129); conditions: radiolabeled PDBu at 4° C.; read-out: Biochemical Ki, PKCγ; cited from earlier work
[2] = target: PKCα (Homo sapiens, UniProt P17252); conditions: radiolabeled PDBu at 4° C.; read-out: Biochemical Ki, PKCα; cited from earlier work
[3] = target: T1, native (untagged) murine PKCε (Mus musculus, UniProt P16054); experiment: FPCBA competition with probe 1, native PKCε in HEK293 cells; type: binding; parameters: For coexpression of full-length unmodified PKC proteins with mVenus as an independent marker; expressed in transfected cells; host or cells: HEK293 (transient, pIRES-mVenus); conditions: read-out: Cellular Ki for native PKCε (95% confidence interval); probe 1 400 nM, BIM1 2 μM, 2 h at 37° C.
T1 sequence (P16054 1-737): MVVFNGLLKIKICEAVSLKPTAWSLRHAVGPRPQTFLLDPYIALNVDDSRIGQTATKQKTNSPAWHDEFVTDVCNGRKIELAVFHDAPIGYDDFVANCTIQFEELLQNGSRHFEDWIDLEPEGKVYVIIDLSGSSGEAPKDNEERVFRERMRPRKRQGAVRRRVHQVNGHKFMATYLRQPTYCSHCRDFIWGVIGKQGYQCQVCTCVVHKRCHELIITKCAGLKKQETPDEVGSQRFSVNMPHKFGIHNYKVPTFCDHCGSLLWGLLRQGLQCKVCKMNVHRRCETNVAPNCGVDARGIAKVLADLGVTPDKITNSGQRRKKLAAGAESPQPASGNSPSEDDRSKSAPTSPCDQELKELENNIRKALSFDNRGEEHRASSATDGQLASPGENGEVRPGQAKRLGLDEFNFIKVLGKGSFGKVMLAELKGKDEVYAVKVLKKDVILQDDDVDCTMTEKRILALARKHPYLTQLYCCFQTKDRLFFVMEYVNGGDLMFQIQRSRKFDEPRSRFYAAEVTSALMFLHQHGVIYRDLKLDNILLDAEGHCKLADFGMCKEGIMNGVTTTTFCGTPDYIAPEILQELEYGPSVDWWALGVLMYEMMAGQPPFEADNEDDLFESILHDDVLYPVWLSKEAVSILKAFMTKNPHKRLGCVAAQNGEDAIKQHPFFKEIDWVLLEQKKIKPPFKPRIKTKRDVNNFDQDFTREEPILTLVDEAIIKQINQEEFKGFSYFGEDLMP

[4] = target: T2, native (untagged) murine PKCδ (Mus musculus, UniProt P28867); experiment: FPCBA competition with probe 1, native PKCδ in HEK293 cells; type: binding; conditions: read-out: Cellular Ki for native PKCδ (95% confidence interval); probe 1 400 nM, BIM1 2 μM, 2 h at 37° C.
T2 construct: For coexpression of full-length unmodified PKC proteins with mVenus as an independent marker; expressed in transfected cells; host or cells: HEK293 (transient, pIRES-mVenus)
T2 sequence (P28867 whole entry): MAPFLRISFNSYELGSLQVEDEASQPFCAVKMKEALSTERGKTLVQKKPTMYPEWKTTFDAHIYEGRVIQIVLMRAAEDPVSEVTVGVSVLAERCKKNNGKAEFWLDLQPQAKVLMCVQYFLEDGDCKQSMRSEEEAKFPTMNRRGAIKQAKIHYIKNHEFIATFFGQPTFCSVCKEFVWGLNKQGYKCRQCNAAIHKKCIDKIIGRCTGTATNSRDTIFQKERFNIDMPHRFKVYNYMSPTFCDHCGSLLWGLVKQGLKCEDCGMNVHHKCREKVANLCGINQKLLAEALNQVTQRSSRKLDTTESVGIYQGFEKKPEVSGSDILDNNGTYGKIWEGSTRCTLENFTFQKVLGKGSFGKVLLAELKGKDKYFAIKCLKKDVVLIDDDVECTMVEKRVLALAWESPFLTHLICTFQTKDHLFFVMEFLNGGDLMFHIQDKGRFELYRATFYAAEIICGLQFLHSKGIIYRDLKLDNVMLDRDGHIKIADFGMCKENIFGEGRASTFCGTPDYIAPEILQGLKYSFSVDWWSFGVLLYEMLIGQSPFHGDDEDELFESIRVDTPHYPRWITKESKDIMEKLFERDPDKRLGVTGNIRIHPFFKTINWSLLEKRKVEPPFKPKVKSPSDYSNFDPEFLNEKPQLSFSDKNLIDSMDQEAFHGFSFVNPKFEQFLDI

[5] = target: T3, native (untagged) murine PKCζ (Mus musculus, UniProt Q02956); experiment: FPCBA competition with probe 1, native PKCζ in HEK293 cells; type: binding; parameters: expressed in transfected cells; host or cells: HEK293 (ATCC CRL-1573), transient transfection with pIRES-mVenus carrying the PKC gene; conditions: probe 1 400 nM, BIM1 2 μM, 2 h at 37° C.
T3 sequence (Q02956 1-592): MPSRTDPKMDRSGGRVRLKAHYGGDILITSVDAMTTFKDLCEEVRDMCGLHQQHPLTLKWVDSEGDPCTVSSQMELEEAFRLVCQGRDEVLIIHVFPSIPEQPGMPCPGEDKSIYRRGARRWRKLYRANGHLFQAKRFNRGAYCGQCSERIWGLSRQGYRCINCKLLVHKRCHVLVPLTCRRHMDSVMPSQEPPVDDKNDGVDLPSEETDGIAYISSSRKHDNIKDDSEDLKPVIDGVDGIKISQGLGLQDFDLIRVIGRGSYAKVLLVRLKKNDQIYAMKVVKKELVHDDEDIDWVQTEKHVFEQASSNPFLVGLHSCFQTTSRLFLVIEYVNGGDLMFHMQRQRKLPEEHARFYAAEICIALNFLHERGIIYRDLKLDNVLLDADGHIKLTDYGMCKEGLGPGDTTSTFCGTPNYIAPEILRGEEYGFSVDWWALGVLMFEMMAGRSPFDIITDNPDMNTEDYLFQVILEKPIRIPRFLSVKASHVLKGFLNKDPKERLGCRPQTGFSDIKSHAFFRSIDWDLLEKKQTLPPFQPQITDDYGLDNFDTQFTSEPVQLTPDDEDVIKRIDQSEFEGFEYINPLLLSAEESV

[6] = target: PKCθ (Homo sapiens, UniProt Q04759); conditions: radiolabeled PDBu at 4° C.; read-out: Biochemical Ki, PKCθ; cited from earlier work
Sequence of PKCθ (Q04759 whole entry): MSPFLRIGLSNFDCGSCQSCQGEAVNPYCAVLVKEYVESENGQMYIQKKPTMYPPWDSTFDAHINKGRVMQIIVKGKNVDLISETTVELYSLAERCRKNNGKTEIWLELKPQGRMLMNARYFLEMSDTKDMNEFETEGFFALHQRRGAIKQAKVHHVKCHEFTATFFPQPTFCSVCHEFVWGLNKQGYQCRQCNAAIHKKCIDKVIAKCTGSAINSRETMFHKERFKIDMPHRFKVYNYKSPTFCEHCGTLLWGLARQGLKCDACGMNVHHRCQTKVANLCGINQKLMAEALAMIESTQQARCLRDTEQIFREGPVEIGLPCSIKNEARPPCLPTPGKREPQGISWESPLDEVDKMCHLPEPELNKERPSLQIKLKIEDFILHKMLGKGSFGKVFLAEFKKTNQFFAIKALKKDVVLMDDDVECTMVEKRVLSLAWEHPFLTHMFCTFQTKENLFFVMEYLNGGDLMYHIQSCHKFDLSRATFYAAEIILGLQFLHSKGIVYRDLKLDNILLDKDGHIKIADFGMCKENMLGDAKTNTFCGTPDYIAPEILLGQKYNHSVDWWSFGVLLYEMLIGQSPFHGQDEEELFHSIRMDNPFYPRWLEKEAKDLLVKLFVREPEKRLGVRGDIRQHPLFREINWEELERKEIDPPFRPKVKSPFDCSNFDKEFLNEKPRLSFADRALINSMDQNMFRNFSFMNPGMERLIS

[7] = target: PKCζ (Homo sapiens, UniProt Q05513); conditions: radiolabeled PDBu at 4° C.; cited from earlier work
Sequence of PKCζ (Q05513 whole entry): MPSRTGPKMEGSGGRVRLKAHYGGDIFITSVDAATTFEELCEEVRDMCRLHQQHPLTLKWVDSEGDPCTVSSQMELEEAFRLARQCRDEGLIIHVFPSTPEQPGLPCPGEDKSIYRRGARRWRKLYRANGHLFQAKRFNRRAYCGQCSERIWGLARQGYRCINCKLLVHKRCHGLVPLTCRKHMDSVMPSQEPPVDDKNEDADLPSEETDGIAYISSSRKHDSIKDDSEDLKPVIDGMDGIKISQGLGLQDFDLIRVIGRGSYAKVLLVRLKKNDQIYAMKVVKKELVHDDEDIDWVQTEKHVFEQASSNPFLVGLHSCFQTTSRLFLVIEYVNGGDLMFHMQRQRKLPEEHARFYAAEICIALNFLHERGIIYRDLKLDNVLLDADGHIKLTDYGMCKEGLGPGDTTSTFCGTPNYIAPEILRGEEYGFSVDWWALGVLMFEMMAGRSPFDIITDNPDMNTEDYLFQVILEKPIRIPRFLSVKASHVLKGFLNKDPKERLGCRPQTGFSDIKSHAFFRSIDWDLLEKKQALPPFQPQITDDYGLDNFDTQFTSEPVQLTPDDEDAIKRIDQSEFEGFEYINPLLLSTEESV

[8] = target: native (untagged) murine PKCη (Mus musculus, UniProt P23298); experiment: FPCBA saturation binding of probe 1, native PKCη (IRES-mVenus) in HEK293 cells
Sequence of native (untagged) murine PKCη (P23298 whole entry): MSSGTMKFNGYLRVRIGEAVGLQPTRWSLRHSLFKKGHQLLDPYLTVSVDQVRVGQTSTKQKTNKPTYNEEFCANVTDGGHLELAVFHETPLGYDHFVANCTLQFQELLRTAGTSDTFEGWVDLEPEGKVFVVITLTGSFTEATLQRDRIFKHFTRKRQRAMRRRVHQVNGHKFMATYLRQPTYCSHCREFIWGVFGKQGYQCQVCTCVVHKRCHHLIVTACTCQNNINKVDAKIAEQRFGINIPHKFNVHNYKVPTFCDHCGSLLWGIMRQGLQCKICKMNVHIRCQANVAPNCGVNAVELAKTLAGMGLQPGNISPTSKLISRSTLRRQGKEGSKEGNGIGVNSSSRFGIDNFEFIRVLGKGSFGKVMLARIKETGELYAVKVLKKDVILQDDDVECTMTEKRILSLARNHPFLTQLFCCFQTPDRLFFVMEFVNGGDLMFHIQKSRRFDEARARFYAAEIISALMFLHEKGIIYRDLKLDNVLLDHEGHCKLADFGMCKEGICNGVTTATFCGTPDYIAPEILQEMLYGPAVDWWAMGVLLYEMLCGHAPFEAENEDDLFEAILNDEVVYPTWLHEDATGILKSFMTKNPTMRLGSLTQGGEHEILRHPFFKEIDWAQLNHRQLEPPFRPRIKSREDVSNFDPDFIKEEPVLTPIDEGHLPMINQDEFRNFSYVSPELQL

[9] = target: T1, native (untagged) murine PKCε; experiment: FPCBA saturation binding of probe 1, native PKCε (IRES-mVenus) in HEK293 cells
[10] = test system: Jurkat cells; experiment: Cellular viability assay, Jurkat lymphocytes, 48 h, flow cytometry (Example 2); type: cell-based
Description: The impact of membrane transporters on the toxicity profile of 49 was also studied.
Jurkat lymphocytes were seeded into a 96-well plate in fresh complete medium at 2.5×10^5 cells/mL and 200 μL per well. All compounds were serial diluted in DMSO and added to complete media to achieve a 1:1000 dilution factor (0.10% DMSO in each well). […] The total cell-count for each well was determined by flow cytometry and staining with propidium iodide was used to identify populations of live cells (only dead cells are stained by PI). Counts of viable cells for each treatment, determined in triplicate, were used to generate dose-response curves. These curves were fitted with non-linear regression using an inhibitor vs. response variable slope […] model (GraphPad Prism 9) to determine IC50 values.

SMILES | Ki [1] | Ki [2] | Ki [3] | Ki [4] | Cellular Ki for native PKCζ [5] | Ki [6] | Biochemical Ki, PKCζ [7] | Kd [8] | Kd [9] | activity relative to 33 [10] | IC50 ([10]; Homo sapiens, Jurkat, read-out: toxicity towards Jurkat cells, IC50)
CCC/C=C/C=C/C(=O)O[C@H]1/C(=C/C(=O)OC)C[C@H]2C[C@H]([C@@H](C)O)OC(=O)C[C@H](O)C[C@@H]3C[C@H](OC(C)=O)C(C)(C)[C@](O)(C[C@@H]4C/C(=C/C(=O)OC)C[C@H](/C=C/C(C)(C)[C@]1(O)O2)O4)O3 [bryostatin 1] | 2.2 nM | 0.81 nM | 16 nM | 20 nM | No binding | 1.5 nM | No binding | – | – | – | –
CCCCCCN(CCCCCCCCCCCCNC(=O)c1cc2cc(F)c(O)c(F)c2oc1=O)C(=O)O[C@@]12[C@H](O)[C@@H](C)[C@@]3(O)[C@@H](C=C(CO)C[C@]4(O)C(=O)C(C)=C[C@@H]34)[C@@H]1C2(C)C [probe 1, (1aR,1bS,4aR,7aS,7bS,8R,9R,9aS)-4a,7b,9-trihydroxy-3-(hydroxymethyl)-1,1,6,8-tetramethyl-5-oxo-1,1a,1b,4,4a,5,7a,7b,8,9-decahydro-9aH-cyclopropa[3,4]benzo[1,2-e]azulen-9a-yl (12-(6,8-difluoro-7-hydroxy-2-oxo-2H-chromene-3-carboxamido)dodecyl)(hexyl)carbamate] | – | – | – | – | – | – | – | 177 nM | 568 ± 141 nM | > 20 fold | 500 nM
